Measured values published in US8058281B2, “Use of adenine-derived compounds for the treatment of lupus” (Centre National de la Recherche Scientifique (CNRS), priority 2006, dated 2011).
“And” between values parts separate entries of the source, which are not always exact repeats. Identical values can stand only once. Like-named read-outs stand apart in the source and are kept apart here.

Key:
[1] = biological target: PDE1; experiment: PDE1 inhibition, radioenzyme assay, enzyme isolated from vascular tissue; format: biochemical, bovine; conditions: PDEs isolated from vascular tissue; 1 μM substrate
Experimental: (§1) Cyclic nucleotides phosphodiesterase activity was measured by a radioenzyme method using tritiated cyclic AMP or GMP (1 μM) as substrate (Lugnier C. et al., Biochem. Pharmacol. (1986) 35, 1743-1751; Keravis T et al., Meth. Mol. Biol. (2005) 307, 63-74.). Tritiated adenosine or guanosine monophosphate formed by hydrolysis of the labelled cyclic nucleotide was transformed, in a second incubation with excess nucleotidase, into tritiated adenosine or guanosine. The formed nucleoside was separated from nucleotides by anion exchange resin chromatography. The radioactivity of the nucleoside was measured by liquid scintillation. […]
(§2) A 3 g piece of bovine aortic media was chopped up with scissors, homogenised using an Ultra-Turrex then using a glass/glass Potter in 7 volumes/weight of buffer A containing a cocktail of protease inhibitors (20 mM Tris-HCl, 0.25 M saccharose, 2 mM magnesium acetate, 1 mM dithiothreitol, 5 mM EGTA, 2000 U/ml aprotinine, 10 mg/l leupeptine and 10 mg/l soy-bean trypsin inhibitor). […] The column was washed until no absorption at 280 nm could be detected, then elution was with a linear NaCl gradient (0-0.5 M) in buffer B. 3 ml fractions were collected and enzymatic activity was measured under various conditions so as to determine the peaks of enzymatic activity contained in the fractions for, in the order of elution, PDE1, PDE5, PDE3 and PDE4. […]

[2] = biological target: T1, PDE2 (Homo sapiens, UniProt O00408); experiment: PDE2 inhibition, radioenzyme assay, enzyme isolated from platelets; format: biochemical; conditions: 1 μM substrate
T1 construct: from tissue; host or cells: human platelets, cytosol, DEAE-Sephacel then MonoQ HPLC
Experimental: (§3) Cyclic nucleotides phosphodiesterase activity was measured by a radioenzyme method using tritiated cyclic AMP or GMP (1 μM) as substrate (Lugnier C. et al., Biochem. Pharmacol. (1986) 35, 1743-1751; Keravis T et al., Meth. Mol. Biol. (2005) 307, 63-74.). Tritiated adenosine or guanosine monophosphate formed by hydrolysis of the labelled cyclic nucleotide was transformed, in a second incubation with excess nucleotidase, into tritiated adenosine or guanosine. The formed nucleoside was separated from nucleotides by anion exchange resin chromatography. The radioactivity of the nucleoside was measured by liquid scintillation. Enzyme incubations were carried out under conditions in which there was no more than 15% of substrate hydrolysis, and each point was repeated.
Washed human platelets from the French Blood Bank (Etablissement Francais du Sang) in Strasburg were left to stand, then the sedimented cells were homogenised in buffer A and centrifuged at 105.000 g for 1 hour. The supernatant was subject to chromatography following the procedure already described for the aortic media (C-2). Then the fractions rich in PDE2 (activity stimulated by 5 μM cGMP) were subject to HPLC chromatography using Pharmacia's MonoQ H/R 5×5. The fraction containing PDE2 was aliquoted and stored at −80° C. (Kameni Tcheudji J. F et al, J. Mol. Biol. (2001) 310, […].). […]

[3] = biological target: PDE6; experiment: PDE6 (so in the source) inhibition, radioenzyme assay, enzyme isolated from vascular tissue; format: biochemical, bovine; conditions: PDEs isolated from vascular tissue; 1 μM substrate
Experimental: as §1, §2

[4] = biological target: PDE4; experiment: PDE4 inhibition, radioenzyme assay, enzyme isolated from vascular tissue; format: biochemical, bovine; conditions: PDEs isolated from vascular tissue; 1 μM substrate
Experimental: as §1, §2

[5] = biological target: T2, PDE5 (Bos taurus, UniProt Q28156); experiment: PDE5 inhibition, radioenzyme assay, enzyme isolated from vascular tissue; format: biochemical, bovine; conditions: PDEs isolated from vascular tissue; 1 μM substrate
T2 construct: Effects of compound NCS 613 on PDEs isolated; from tissue; host or cells: bovine aortic media, cytosol, DEAE-Sephacel fraction
Experimental: as §1, §2

[6] = biological target: recombinant PDE4A (Homo sapiens, UniProt P27815); experiment: Inhibition of recombinant PDE4 subtype PDE4A; format: biochemical
Experimental: as §3
(§4) The concentration of the substance causing 50% inhibition of enzymatic activity (IC50) at 1 μM substrate was calculated by non-linear regression (Prism, GraphPad) with the help of the results obtained for compound concentrations that varied as the molecule concentration was increased from 1 nM to 300 μM. Because of solubility problems, the maximum concentration used in this study was limited to 300 μM.

[7] = biological target: recombinant PDE4B (Homo sapiens, UniProt Q07343); experiment: Inhibition of recombinant PDE4 subtype PDE4B; format: biochemical
Experimental: as §3, §4

[8] = biological target: recombinant PDE4C (Homo sapiens, UniProt Q08493); experiment: Inhibition of recombinant PDE4 subtype PDE4C; format: biochemical
Experimental: as §3, §4

[9] = biological target: recombinant PDE4D (Homo sapiens, UniProt Q08499); experiment: Inhibition of recombinant PDE4 subtype PDE4D; format: biochemical
Experimental: as §3, §4

[10] = system: MRL/lpr mice; experiment: Proteinuria in MRL/lpr lupus mice; format: in vivo, mouse
Experimental: FIG. 1: Effect of compound NCS 613 and denbufylline on proteinuria in MRL/lpr mice. Up to the age of 13 weeks, the mice received 4 administrations either of 30 μg of compound NCS 613 or of 100 μg of denbufylline.
(§5) Pre-autoimmune female MRL/lpr mice aged 5 weeks received by intravenous route, either buffered saline (PBS; control group, 100 μl per mouse), or compound NCS 613, (30 μg/100 μl per mouse, diluted in saline solution containing 10% ethanol), or denbufylline (100 μg/100 μl per mouse, diluted in saline solution containing 10% ethanol). The […] groups were composed of 10 mice each. The administrations (4 in number) were carried out at the ages of 5, 7, 9 and 13 weeks, and mice were monitored regularly (observations, proteinuria test by Albutix strip, blood tests).

[11] = system: MRL/lpr mice; experiment: Survival of MRL/lpr lupus mice; format: in vivo, mouse; conditions: for effect on survival / life expectancy of MRL/lpr mice: 4 i.v. administrations (NCS 613 30 μg, denbufylline 100 μg), followed to 26 weeks
Experimental: FIG. 2: Effect of compound NCS 613 (A) and denbufylline (B) on survival of MRL/lpr lupus mice. Up to the age of 13 weeks, the mice received 4 administrations either of 30 μg of compound NCS 613 or of 100 μg of denbufylline. The results are expressed in percentage survival of mice. Control mice received only PBS (phosphate buffered saline, pH 7.4) without the active ingredient.
as §5

[12] = system: TNF-α secretion by blood cells of MRL/lpr mice; experiment: TNF-α secretion by blood cells from treated mice after ex vivo LPS stimulation; format: in vivo, mouse; conditions: LPS 24 h ex vivo
Experimental: FIG. 3: Effect of compound NCS 613 and denbufylline on the production of TNF-α by blood cells from treated mice after LPS stimulation. TNF-α secretion by blood cells from mice having received saline solution (PBS), compound NCS 613 or denbufylline after ex vivo LPS stimulation for 24 hours was measured in the supernatants by ELISA. The error bars show the standard deviation of duplicates, and the percentage inhibition of TNF-α secretion as a function of the secretion measured in the PBS group is shown. The figures refer to experiments carried out on mice aged 11 (A) and 14 (B) weeks.
as §5
TNF-α secretion was measured after bacterial lipopolysaccharide (LPS) stimulation of mouse blood cells (blood pooled from the 7 mice per group). LPS cell stimulation for 24 hours generates TNF-α secretion which can then be measured in culture supernatants. Cells from the blood of the 3 groups of mice were separated on a Ficoll gradient, and then stimulated by LPS. Supernatants were collected after 24 hours of culture, and the presence of TNF-α in supernatants was measured by a double sandwich ELISA test (BD Biosciences). This experiment was carried out at different ages (11 and 14 weeks, that is 2 weeks after the 3rd administration and 1 week after the 4th administration respectively).

[13] = system: MRL/lpr mice; experiment: Anti-double-stranded DNA antibodies in serum of MRL/lpr mice (ELISA); format: in vivo, mouse; conditions: for percentage of mice positive for anti-DNA Abs in serum: positive = OD > 1; for age at which first anti-DNA Ab positive mice appeared: treatment stopped at 13 weeks
Experimental: FIG. 4: Effect of compound NCS 613 and denbufylline on anti-double-stranded DNA Abs. The presence of Abs directed against DNA in murine serums was measured at different ages (in weeks) by ELISA. Results are shown as a percentage of positive mice. A mouse is defined as positive when the optical density (OD) measured by ELISA is greater than 1.
as §5
The presence of Abs directed against DNA in murine serums was measured at different ages by ELISA (Monneaux et al., Eur. J. Immunol. (2003) 33, 287-296; Monneaux et al, Arthritis Rheum (2004) 50, 3232-3238.). Calf thymus double-stranded DNA (Sigma) was adsorbed (100 ng/ml) on 96 well polyvinyl chloride plates (Falcon) and incubated overnight at 37° C. After three washes and a saturation step in PBS-Tween buffer containing bovine serum albumin, serums (diluted to 1/500) were incubated for one hour at 37° C. […] The absorbance was measured at 450 nm by spectrophotometry after the reaction had been stopped.

[14] = system: TNF-α secretion by PBMCs of patients with auto-immune diseases; experiment: TNF-α secretion after LPS stimulation of mononuclear blood cells of autoimmune patients; format: cell-based, human; conditions: for inhibition at 10 µM: Homo sapiens, PBMC
Experimental: FIG. 5. Inhibition of TNF-α secretion by compound NCS 613 after LPS stimulation of the PBMCs of patients with auto-immune diseases. Blood cells from patients with lupus (SLE), rheumatoid arthritis (RA) and Sjögren's syndrome (SS) were incubated for 45 minutes in the presence or absence of NCS 613 (10 μM), then stimulated with LPS. The supernatants were recovered after 24 hours of culture and the level of TNF-α in supernatants was measured by ELISA. The results are given in TNF-α concentration after incubation in the presence or absence of NCS 613 (A) or as inhibition of TNF-α secretion after incubation with NCS 613 (B). Error bars show the standard deviation of duplicates.
(§6) The blood of 5 patients with lupus, rheumatoid arthritis or Sjögren's syndrome was collected directly in heparinated tubes. Mononuclear blood cells were separated by centrifugation (30 min at 600 g) on a Ficoll gradient. Cells were then grown at a concentration of 2×10^5 cells per well in the presence or absence of compound NCS 613 (10 μM) for 45 minutes then stimulated with LPS. Supernatants were recovered after 24 hours of culture and the level of TNF-α in supernatants was measured by double sandwich ELISA (BD Biosciences).

[15] = system: TNF-α secretion by PBMCs of a lupus patient; experiment: Basal TNF-α secretion by mononuclear blood cells of a lupus patient; format: cell-based; conditions: Homo sapiens, PBMC, no LPS stimulation, one lupus patient, read-out: inhibition of spontaneous (basal) TNF-α secretion
Experimental: FIG. 6: Inhibition of TNF-α secretion by PBMCs of a lupus patient after incubation with NCS 613. The blood cells of a lupus patient (LED2) were incubated in the presence or absence of NCS 613 (10 μM). Supernatants were recovered after 24 hours of culture and the level of TNF-α in the supernatants was measured by ELISA. The results are given as TNF-α concentration after incubation in the presence or absence of NCS 613 and the percentage inhibition of TNF-α secretion after incubation with NCS 613 is shown. Error bars show the standard deviation of duplicates.
as §6
So the ability of compound NCS 613 to inhibit basal TNF-α secretion was studied in blood cells of this patient.

[16] = at 20 weeks of age, 4 i.v. administrations at 5, 7, 9, 13 weeks (NCS 613 30 μg, denbufylline 100 μg)
[17] = mice aged 11 weeks (2 weeks after 3rd administration)
[18] = mice aged 14 weeks (1 week after 4th administration)

T1 sequence (O00408 whole entry): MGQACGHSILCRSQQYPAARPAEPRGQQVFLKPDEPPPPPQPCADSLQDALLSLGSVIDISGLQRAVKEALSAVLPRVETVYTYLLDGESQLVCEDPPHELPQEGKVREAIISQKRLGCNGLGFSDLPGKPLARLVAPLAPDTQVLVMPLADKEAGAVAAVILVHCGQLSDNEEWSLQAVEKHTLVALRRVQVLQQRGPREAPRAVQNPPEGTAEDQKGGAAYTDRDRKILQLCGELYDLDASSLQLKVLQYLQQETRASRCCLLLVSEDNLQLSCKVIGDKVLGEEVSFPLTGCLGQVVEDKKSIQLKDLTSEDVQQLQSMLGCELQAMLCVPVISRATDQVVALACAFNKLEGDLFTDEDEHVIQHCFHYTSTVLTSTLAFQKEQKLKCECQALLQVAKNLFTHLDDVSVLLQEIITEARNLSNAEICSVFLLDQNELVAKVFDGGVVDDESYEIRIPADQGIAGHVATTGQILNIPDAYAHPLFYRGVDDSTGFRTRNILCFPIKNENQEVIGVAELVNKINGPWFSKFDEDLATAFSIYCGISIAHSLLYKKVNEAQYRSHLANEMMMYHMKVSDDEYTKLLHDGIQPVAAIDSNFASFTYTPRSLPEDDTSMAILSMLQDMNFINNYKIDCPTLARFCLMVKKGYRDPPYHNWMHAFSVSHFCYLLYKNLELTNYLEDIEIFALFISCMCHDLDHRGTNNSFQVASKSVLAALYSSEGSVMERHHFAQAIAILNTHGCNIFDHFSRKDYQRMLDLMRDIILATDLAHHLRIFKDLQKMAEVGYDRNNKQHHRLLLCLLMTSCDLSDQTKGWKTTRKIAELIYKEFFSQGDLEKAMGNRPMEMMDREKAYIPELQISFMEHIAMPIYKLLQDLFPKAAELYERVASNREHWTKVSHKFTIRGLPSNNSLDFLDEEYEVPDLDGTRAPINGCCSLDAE
Chain of recombinant PDE4A (P27815 whole entry, species assumed): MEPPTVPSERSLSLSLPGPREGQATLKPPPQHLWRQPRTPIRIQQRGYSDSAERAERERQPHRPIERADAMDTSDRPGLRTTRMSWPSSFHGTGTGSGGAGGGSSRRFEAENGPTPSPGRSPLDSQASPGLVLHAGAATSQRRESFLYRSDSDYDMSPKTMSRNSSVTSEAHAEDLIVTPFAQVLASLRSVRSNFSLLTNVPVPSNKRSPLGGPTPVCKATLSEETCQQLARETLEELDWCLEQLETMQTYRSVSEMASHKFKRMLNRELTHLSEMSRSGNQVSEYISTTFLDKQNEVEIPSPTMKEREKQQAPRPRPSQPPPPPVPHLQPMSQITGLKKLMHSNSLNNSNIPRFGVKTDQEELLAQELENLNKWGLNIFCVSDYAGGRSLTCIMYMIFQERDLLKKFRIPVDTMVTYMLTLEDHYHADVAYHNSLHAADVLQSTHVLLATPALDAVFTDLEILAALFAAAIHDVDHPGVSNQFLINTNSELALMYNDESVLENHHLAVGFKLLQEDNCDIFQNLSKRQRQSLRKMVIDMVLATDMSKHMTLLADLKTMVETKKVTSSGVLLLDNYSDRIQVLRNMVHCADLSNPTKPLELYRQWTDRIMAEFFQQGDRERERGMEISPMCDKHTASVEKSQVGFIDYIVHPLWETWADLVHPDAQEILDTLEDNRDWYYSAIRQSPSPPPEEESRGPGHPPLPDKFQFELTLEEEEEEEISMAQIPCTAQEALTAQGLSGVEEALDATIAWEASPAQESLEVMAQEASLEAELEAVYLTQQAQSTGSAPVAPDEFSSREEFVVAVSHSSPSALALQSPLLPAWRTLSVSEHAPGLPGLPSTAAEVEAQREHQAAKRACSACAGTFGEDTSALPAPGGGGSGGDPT
Chain of recombinant PDE4C (Q08493 whole entry, species assumed): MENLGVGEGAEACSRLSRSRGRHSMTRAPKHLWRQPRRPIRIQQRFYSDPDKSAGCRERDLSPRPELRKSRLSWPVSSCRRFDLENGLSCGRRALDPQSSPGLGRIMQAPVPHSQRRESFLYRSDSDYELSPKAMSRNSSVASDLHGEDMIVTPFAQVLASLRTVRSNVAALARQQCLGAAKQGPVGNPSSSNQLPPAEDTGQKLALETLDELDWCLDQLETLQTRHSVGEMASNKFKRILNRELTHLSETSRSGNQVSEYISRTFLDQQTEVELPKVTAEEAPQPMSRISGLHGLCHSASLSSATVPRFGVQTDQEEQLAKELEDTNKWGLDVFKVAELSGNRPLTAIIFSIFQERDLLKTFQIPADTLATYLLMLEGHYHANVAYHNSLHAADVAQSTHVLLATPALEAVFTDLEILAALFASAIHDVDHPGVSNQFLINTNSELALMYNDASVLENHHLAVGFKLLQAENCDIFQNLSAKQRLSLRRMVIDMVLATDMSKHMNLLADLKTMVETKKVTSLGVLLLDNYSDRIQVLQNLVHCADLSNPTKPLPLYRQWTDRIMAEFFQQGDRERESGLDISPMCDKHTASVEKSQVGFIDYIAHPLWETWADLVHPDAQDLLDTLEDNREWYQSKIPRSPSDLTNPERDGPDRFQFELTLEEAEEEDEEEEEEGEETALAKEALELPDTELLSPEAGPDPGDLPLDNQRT
Chain of recombinant PDE4B (Q07343 whole entry, species assumed): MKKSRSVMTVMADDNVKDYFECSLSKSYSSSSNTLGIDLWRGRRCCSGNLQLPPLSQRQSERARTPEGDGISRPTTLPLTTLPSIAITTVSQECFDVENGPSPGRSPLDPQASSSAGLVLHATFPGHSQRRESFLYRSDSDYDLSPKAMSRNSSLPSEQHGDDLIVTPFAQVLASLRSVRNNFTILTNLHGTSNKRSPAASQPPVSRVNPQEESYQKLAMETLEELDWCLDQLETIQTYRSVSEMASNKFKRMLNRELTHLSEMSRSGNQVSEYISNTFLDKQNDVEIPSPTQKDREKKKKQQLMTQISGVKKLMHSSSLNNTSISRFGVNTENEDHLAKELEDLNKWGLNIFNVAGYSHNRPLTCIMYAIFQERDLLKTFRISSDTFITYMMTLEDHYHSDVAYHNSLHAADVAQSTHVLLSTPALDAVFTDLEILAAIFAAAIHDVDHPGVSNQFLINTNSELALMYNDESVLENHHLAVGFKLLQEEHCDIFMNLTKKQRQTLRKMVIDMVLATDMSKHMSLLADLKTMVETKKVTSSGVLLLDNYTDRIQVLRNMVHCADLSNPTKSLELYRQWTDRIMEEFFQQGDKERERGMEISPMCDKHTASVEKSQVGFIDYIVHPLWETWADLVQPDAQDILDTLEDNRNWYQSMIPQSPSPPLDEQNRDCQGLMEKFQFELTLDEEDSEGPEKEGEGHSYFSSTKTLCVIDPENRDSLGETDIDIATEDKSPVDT
Chain of recombinant PDE4D (Q08499 whole entry, species assumed): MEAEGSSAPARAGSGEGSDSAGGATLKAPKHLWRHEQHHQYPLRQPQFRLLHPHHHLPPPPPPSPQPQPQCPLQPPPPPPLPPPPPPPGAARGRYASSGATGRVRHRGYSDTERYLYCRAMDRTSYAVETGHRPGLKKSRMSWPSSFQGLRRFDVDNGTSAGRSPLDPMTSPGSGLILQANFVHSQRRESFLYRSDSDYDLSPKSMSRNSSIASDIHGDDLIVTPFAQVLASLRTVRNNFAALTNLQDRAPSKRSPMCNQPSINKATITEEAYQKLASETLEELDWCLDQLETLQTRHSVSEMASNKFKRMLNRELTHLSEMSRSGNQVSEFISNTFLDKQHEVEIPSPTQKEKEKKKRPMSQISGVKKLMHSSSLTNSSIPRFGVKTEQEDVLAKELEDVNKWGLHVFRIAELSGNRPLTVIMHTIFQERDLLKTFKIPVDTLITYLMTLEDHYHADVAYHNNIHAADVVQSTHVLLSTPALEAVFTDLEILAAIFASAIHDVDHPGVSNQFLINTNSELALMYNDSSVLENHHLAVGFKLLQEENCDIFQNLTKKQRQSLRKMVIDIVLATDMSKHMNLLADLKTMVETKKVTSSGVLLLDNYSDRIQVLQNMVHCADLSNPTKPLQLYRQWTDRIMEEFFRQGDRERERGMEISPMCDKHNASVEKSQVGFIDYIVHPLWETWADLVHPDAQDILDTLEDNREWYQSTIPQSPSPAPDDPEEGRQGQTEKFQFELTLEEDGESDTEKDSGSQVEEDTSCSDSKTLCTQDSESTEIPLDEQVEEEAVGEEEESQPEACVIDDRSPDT

Row | Compound | IC50 [1] [µM] | IC50 [2] [µM] | IC50 [4] [µM] | IC50 [5] [µM] | percentage of mice with proteinuria detected [10, 16] | effect on survival / life expectancy of MRL/lpr mice [11] | inhibition percentage of TNF-α secretion vs PBS control group [12, 17] | inhibition percentage of TNF-α secretion vs PBS control group [12, 18] | age at which first anti-DNA Ab positive mice appeared [13] [weeks] | also measured
1 | CNc1nc(C(F)(F)F)nc2c1ncn2Cc1ccccc1F [NCS 613, 9-(2-fluorobenzyl)-N(6)-methyl-2-trifluoromethyladenine] | 39 | 24 | 0.042 | 4.7 | 50% | markedly prolongs the life expectancy | 44% | 54% | 20 | IC50 [3]: > 300 µM; IC50 [6]: 0.043 µM; IC50 [7]: 0.05 µM; IC50 [8]: 0.0014 µM; IC50 [9]: 0.014 µM; percentage of mice with proteinuria detected ([10]; at 14 weeks of age, 4 i.v. administrations at 5, 7, 9, 13 weeks (NCS 613 30 μg)): 10%; mortality ([11]; at 21 weeks of age, 4 i.v. administrations of 30 μg): 30%; percentage of mice positive for anti-DNA Abs in serum ([13]; at 20 weeks of age): 20%; percentage of mice positive for anti-DNA Abs in serum ([13]; at 26 weeks of age, 13 weeks after end of treatment): 50%; inhibition percentage of TNF-α secretion by mononuclear blood cells of lupus (SLE) patients, individual patients ([14]; 10 μM, LPS stimulation, 3 lupus patients): 69% and 91% and 98%; inhibition at 10 µM ([14]; LPS stimulation, mean of 3 patients, read-out: mean inhibition percentage of TNF-α secretion by mononuclear blood cells of lupus (SLE) patients): 86%; inhibition at 10 µM ([14]; patients with SLE, RA, Sjögren's syndrome, read-out: inhibition of TNF-α production by LPS-stimulated blood cells of autoimmune patients): 70 to 98%; inhibition at 10 µM [15]: 67%
2 | CCCCn1c(=O)c2c(ncn2CC(C)=O)n(CCCC)c1=O [Denbufylline, denbufylline, reference compound] | 33 | 208 | 0.76 | 5.4 | equivalent to that of control mice | no acknowledged effect on mouse survival | Equivalent results | even greater than that obtained with compound NCS 613 | 14 | IC50 PDE6 [3]: n.s; age at which mortality begins ([11]; 4 i.v. administrations of 100 μg): 15 weeks
